Source: US8278345B2, “Inhibitors of glutaminyl cyclase” (Probiodrug AG, priority 2006, dated 2012)

Biological target: hQC (Homo sapiens, UniProt Q16769)
Assay: Inhibitor assay for glutaminyl cyclase activity (fluorometric, H-Gln-βNA / H-Gln-AMC)
Type: biochemical
Settings: compound from preparative synthesis, purified; read-out: IC50 hQC
Procedure, shortened: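 Coupled fluorometric assay at 30 °C with pyroglutamyl aminopeptidase, in Tris/HCl pH 8.0 with EDTA, substrate H-Gln-βNA (0.2 mM; ex/em 320/410 nm) or H-Gln-AMC (ex/em 380/460 nm), initiated by QC. Screening: 4 mM inhibitor, substrate at 1 KM; Ki from progress curves fitted to competitive inhibition.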

Chain of hQC (Q16769 29-361): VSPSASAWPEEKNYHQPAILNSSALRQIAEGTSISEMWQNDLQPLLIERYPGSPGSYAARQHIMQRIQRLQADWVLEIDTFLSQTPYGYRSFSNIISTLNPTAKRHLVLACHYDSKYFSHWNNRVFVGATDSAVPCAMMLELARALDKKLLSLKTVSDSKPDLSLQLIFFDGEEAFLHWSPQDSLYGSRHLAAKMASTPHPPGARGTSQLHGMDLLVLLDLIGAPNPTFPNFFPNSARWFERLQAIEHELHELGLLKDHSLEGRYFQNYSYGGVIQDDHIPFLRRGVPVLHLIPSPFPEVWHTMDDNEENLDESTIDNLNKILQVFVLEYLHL

IC50 [nM] | Structure (SMILES)
156 | CSCC1=C(O)C(=O)N(c2ccc3[nH]cnc3c2)C1c1cc(Cl)ccc1O (stereo not drawn) [Compound 336, 1-(1H-Benzoimidazol-5-yl)-5-(5-chloro-2-hydroxy-phenyl)-3-hydroxy-4-methylsulfanylmethyl-1,5-dihydro-pyrrol-2-one]

Same assay, conditions: read-out: IC50

Structure (SMILES) | IC50 [nM]
CCCC(=O)C1=C(O)C(=O)N(c2ccc3[nH]cnc3c2)C1c1cc(C(F)(F)F)cc(C(F)(F)F)c1 (stereo not drawn) [Compound 335, 1-(1H-Benzoimidazol-5-yl)-5-(3,5-bis-trifluoromethyl-phenyl)-4-butyryl-3-hydroxy-1,5-dihydro-pyrrol-2-one] | 6790
CC1=C(O)C(=O)N(c2ccc3[nH]cnc3c2)C1c1cc(Cl)ccc1O (stereo not drawn) [Compound 337, 1-(1H-Benzoimidazol-5-yl)-5-(5-chloro-2-hydroxy-phenyl)-3-hydroxy-4-methyl-1,5-dihydro-pyrrol-2-one] | 5800
CCC1=C(O)C(=O)N(c2ccc3[nH]cnc3c2)C1c1cc(C)c(C)o1 (stereo not drawn) [Compound 340, 1-(1H-Benzoimidazol-5-yl)-5-(4,5-dimethyl-furan-2-yl)-4-ethyl-3-hydroxy-1,5-dihydro-pyrrol-2-one] | 3370
CC(C)(C)C(=O)C1=C(O)C(=O)N(c2ccc3[nH]cnc3c2)C1c1cc(F)cc(F)c1F (stereo not drawn) [Compound 341, 1-(1H-Benzoimidazol-5-yl)-4-(2,2-dimethyl-propionyl)-3-hydroxy-5-(2,3,5-trifluoro-phenyl)-1,5-dihydro-pyrrol-2-one] | 4900
Cc1ccc(O)c(C2C(C(=O)C3CC3)=C(O)C(=O)N2c2ccc3[nH]cnc3c2)c1 (stereo not drawn) [Compound 343, 1-(1H-Benzoimidazol-5-yl)-4-cyclopropanecarbonyl-3-hydroxy-5-(2-hydroxy-5-methyl-phenyl)-1,5-dihydro-pyrrol-2-one] | 3280
Cc1ccc2occ(C3C(c4c[nH]c5ccccc45)=C(O)C(=O)N3c3ccc4[nH]cnc4c3)c(=O)c2c1 (stereo not drawn) [Compound 346, 1-(1H-Benzoimidazol-5-yl)-3-hydroxy-4-(1H-indol-3-yl)-5-(6-methyl-4-oxo-4H-chromen-3-yl)-1,5-dihydro-pyrrol-2-one] | 4990
CC1=C(O)C(=O)N(c2ccc3[nH]cnc3c2)C1c1csc2ccccc12 (stereo not drawn) [Compound 347, 5-Benzo[b]thiophen-3-yl-1-(1H-benzoimidazol-5-yl)-3-hydroxy-4-methyl-1,5-dihydro-pyrrol-2-one] | 3100
CC(C)C1=C(O)C(=O)N(c2ccc3[nH]cnc3c2)C1c1ccsc1 (stereo not drawn) [Compound 348, 1-(1H-Benzoimidazol-5-yl)-3-hydroxy-4-isopropyl-5-thiophen-3-yl-1,5-dihydro-pyrrol-2-one] | 4090
O=C(O)CC1=C(O)C(=O)N(c2ccc3[nH]cnc3c2)C1c1cccc2cccnc12 (stereo not drawn) [Compound 354, [1-(1H-Benzoimidazol-5-yl)-4-hydroxy-5-oxo-2-quinolin-8-yl-2,5-dihydro-1H-pyrrol-3-yl]-acetic acid] | 8770
CCCC(=O)C1=C(O)C(=O)N(c2ccc3[nH]cnc3c2)C1c1ccc[nH]1 (stereo not drawn) [Compound 355, 1-(1H-Benzoimidazol-5-yl)-3-butyryl-4-hydroxy-1,2-dihydro-1′H-[2,2′]bipyrrolyl-5-one] | 8680
CC1=C(O)C(=O)N(c2ccc3[nH]cnc3c2)C1c1coc2ccccc2c1=O (stereo not drawn) [Compound 356, 1-(1H-Benzoimidazol-5-yl)-3-hydroxy-4-methyl-5-(4-oxo-4H-chromen-3-yl)-1,5-dihydro-pyrrol-2-one] | 3910
O=C1C(O)=C(c2c[nH]c3ccccc23)C(c2coc3ccccc3c2=O)N1c1ccc2[nH]cnc2c1 (stereo not drawn) [Compound 357, 1-(1H-Benzoimidazol-5-yl)-3-hydroxy-4-(1H-indol-3-yl)-5-(4-oxo-4H-chromen-3-yl)-1,5-dihydro-pyrrol-2-one] | 4720
O=C(O)CC1=C(O)C(=O)N(c2ccc3[nH]cnc3c2)C1c1c(F)ccc(Cl)c1F (stereo not drawn) [Compound 358, [1-(1H-Benzoimidazol-5-yl)-2-(3-chloro-2,6-difluoro-phenyl)-4-hydroxy-5-oxo-2,5-dihydro-1H-pyrrol-3-yl]-acetic acid] | 4540
CCCC(=O)C1=C(O)C(=O)N(c2ccc3[nH]cnc3c2)C1c1c[nH]cn1 (stereo not drawn) [Compound 359, 1-(1H-Benzoimidazol-5-yl)-4-butyryl-3-hydroxy-5-(1H-imidazol-4-yl)-1,5-dihydro-pyrrol-2-one] | 7780
O=C(O)CCC1C(C(=O)C2CCCCC2)=C(O)C(=O)N1c1ccc2[nH]cnc2c1 (stereo not drawn) [Compound 361, 3-[1-(1H-Benzoimidazol-5-yl)-3-cyclohexanecarbonyl-4-hydroxy-5-oxo-2,5-dihydro-1H-pyrrol-2-yl]-propionic acid] | 8950
CCCC(=O)C1=C(O)C(=O)N(c2ccc3[nH]cnc3c2)C1 [Compound 362, 1-(1H-Benzoimidazol-5-yl)-4-butyryl-3-hydroxy-1,5-dihydro-pyrrol-2-one] | 4720
O=C1C(O)=C(c2ccc(O)cc2)C(c2cccc3cccnc23)N1c1ccc2[nH]cnc2c1 (stereo not drawn) [Compound 364, 1-(1H-Benzoimidazol-5-yl)-3-hydroxy-4-(4-hydroxy-phenyl)-5-quinolin-8-yl-1,5-dihydro-pyrrol-2-one] | 5080
CC(C)C1=C(O)C(=O)N(c2ccc3[nH]cnc3c2)C1c1c(F)ccc(Cl)c1F (stereo not drawn) [Compound 365, 1-(1H-Benzoimidazol-5-yl)-5-(3-chloro-2,6-difluoro-phenyl)-3-hydroxy-4-isopropyl-1,5-dihydro-pyrrol-2-one] | 8050

Stronger by IC50, values ahead:

IC50 [nM] | Structure (SMILES)
2650 | CCCC(=O)C1=C(O)C(=O)N(c2ccc3[nH]cnc3c2)C1c1cccc(C)n1 (stereo not drawn) [Compound 334, 1-(1H-Benzoimidazol-5-yl)-4-butyryl-3-hydroxy-5-(6-methyl-pyridin-2-yl)-1,5-dihydro-pyrrol-2-one]
310 | CSCC1=C(O)C(=O)N(c2ccc3[nH]cnc3c2)C1c1cc(Cl)ccc1O (stereo not drawn) [Compound 336, 1-(1H-Benzoimidazol-5-yl)-5-(5-chloro-2-hydroxy-phenyl)-3-hydroxy-4-methylsulfanylmethyl-1,5-dihydro-pyrrol-2-one]
2200 | O=C(O)CC1=C(O)C(=O)N(c2ccc3[nH]cnc3c2)C1c1cc(Br)ccc1F (stereo not drawn) [Compound 338, [1-(1H-Benzoimidazol-5-yl)-2-(5-bromo-2-fluoro-phenyl)-4-hydroxy-5-oxo-2,5-dihydro-1H-pyrrol-3-yl]-acetic acid]
580 | O=C1C(O)=C(c2ccccc2)C(c2c(F)ccc(Cl)c2F)N1c1ccc2[nH]cnc2c1 (stereo not drawn) [Compound 339, 1-(1H-Benzoimidazol-5-yl)-5-(3-chloro-2,6-difluoro-phenyl)-3-hydroxy-4-phenyl-1,5-dihydro-pyrrol-2-one]
310 | Cc1cc(C2C(C(=O)C3CC3)=C(O)C(=O)N2c2ccc3[nH]cnc3c2)cc(C)c1O (stereo not drawn) [Compound 342, 1-(1H-Benzoimidazol-5-yl)-4-cyclopropanecarbonyl-3-hydroxy-5-(4-hydroxy-3,5-dimethyl-phenyl)-1,5-dihydro-pyrrol-2-one]
400 | CCCC(=O)C1=C(O)C(=O)N(c2ccc3[nH]cnc3c2)C1c1ccc(O)c(Br)c1 (stereo not drawn) [Compound 344, 1-(1H-Benzoimidazol-5-yl)-5-(3-bromo-4-hydroxy-phenyl)-4-butyryl-3-hydroxy-1,5-dihydro-pyrrol-2-one]
1570 | CC(=O)C1=C(O)C(=O)N(c2ccc3[nH]cnc3c2)C1c1ccc(N2CCCC2)cc1 (stereo not drawn) [Compound 345, 4-Acetyl-1-(1H-benzoimidazol-5-yl)-3-hydroxy-5-(4-pyrrolidin-1-yl-phenyl)-1,5-dihydro-pyrrol-2-one]
1030 | CC(=O)C1=C(O)C(=O)N(c2ccc3[nH]cnc3c2)C1c1nccs1 (stereo not drawn) [Compound 349, 4-Acetyl-1-(1H-benzoimidazol-5-yl)-3-hydroxy-5-thiazol-2-yl-1,5-dihydro-pyrrol-2-one]
1210 | CC1=C(O)C(=O)N(c2ccc3[nH]cnc3c2)C1c1ccc2nonc2c1 (stereo not drawn) [Compound 351, 1-(1H-Benzoimidazol-5-yl)-5-(benzo[c][1,2,5]oxadiazol-5-yl)-3-hydroxy-4-methyl-1,5-dihydro-pyrrol-2-one]
4 | CC(=O)C1=C(O)C(=O)N(c2ccc3[nH]cnc3c2)C1c1ccc(CO)o1 (stereo not drawn) [Compound 352, 4-Acetyl-1-(1H-benzoimidazol-5-yl)-3-hydroxy-5-(5-hydroxymethyl-furan-2-yl)-1,5-dihydro-pyrrol-2-one]
2740 | CCCC(=O)C1=C(O)C(=O)N(c2ccc3[nH]cnc3c2)C1c1ccco1 (stereo not drawn) [Compound 353, 1-(1H-Benzoimidazol-5-yl)-4-butyryl-5-furan-2-yl-3-hydroxy-1,5-dihydro-pyrrol-2-one]
40 | CC(=O)C1=C(O)C(=O)N(c2ccc3[nH]cnc3c2)C1c1cnc2ccccc2c1 (stereo not drawn) [Compound 360, 4-Acetyl-1-(1H-benzoimidazol-5-yl)-3-hydroxy-5-quinolin-3-yl-1,5-dihydro-pyrrol-2-one]
670 | O=C1C(O)=C(c2ccc(O)cc2)C(c2cccc(F)c2)N1c1ccc2[nH]cnc2c1 (stereo not drawn) [Compound 363, 1-(1H-Benzoimidazol-5-yl)-5-(3-fluoro-phenyl)-3-hydroxy-4-(4-hydroxy-phenyl)-1,5-dihydro-pyrrol-2-one]
2380 | CC(=O)C1=C(O)C(=O)N(c2ccc3[nH]cnc3c2)C1c1ccco1 (stereo not drawn) [Compound 366, 4-Acetyl-1-(1H-benzoimidazol-5-yl)-5-furan-2-yl-3-hydroxy-1,5-dihydro-pyrrol-2-one]
760 | CC(=O)C1=C(O)C(=O)N(c2ccc3[nH]cnc3c2)C1c1ccsc1 (stereo not drawn) [Compound 367, 4-Acetyl-1-(1H-benzoimidazol-5-yl)-3-hydroxy-5-thiophen-3-yl-1,5-dihydro-pyrrol-2-one]
4 | CCCC(=O)C1=C(O)C(=O)N(c2ccc3[nH]cnc3c2)C1c1ccc2cccc(O)c2n1 (stereo not drawn) [Compound 368, 1-(1H-Benzoimidazol-5-yl)-4-butyryl-3-hydroxy-5-(8-hydroxy-quinolin-2-yl)-1,5-dihydro-pyrrol-2-one]
1570 | O=C(C1=C(O)C(=O)N(c2ccc3[nH]cnc3c2)C1c1ccc(CO)o1)c1cccs1 (stereo not drawn) [Compound 369, 1-(1H-Benzoimidazol-5-yl)-3-hydroxy-5-(5-hydroxymethyl-furan-2-yl)-4-(thiophene-2-carbonyl)-1,5-dihydro-pyrrol-2-one]
